Experimental data from article PMC9648375, “Identification of the first-in-class dual inhibitors of human DNA topoisomerase IIα and indoleamine-2,3-dioxygenase 1 (IDO 1) with strong anticancer properties” (Journal of Enzyme Inhibition and Medicinal Chemistry, 2022).

Biological target: T1, human DNA topoisomerase IIα (Homo sapiens, UniProt P11388)
T1 construct: purchased Inspiralis Ltd, Norwich, UK
Assay: Stabilisation of covalent DNA-enzyme cleavage complex (Topoisomerase II Drug Screening Kit)
Format: biochemical
Settings: 50 µM (Figure S4), linear DNA cleavage intermediate
Description: As relaxation of supercoiled DNA (scDNA) is one of numerous functions of topoisomerase IIα, so the appearance/disappearance of relaxed DNA bands during agarose gel electrophoresis can be used to identify compounds that inhibit the enzyme.
Determination of the inhibitory effect of compounds 1-10 against human topoisomerase Iiα was performed using Human Topoisomerase II Relaxation Assay (Inspiralis Ltd, Norwich, UK) and Topoisomerase II Drug Screening Kit (TopoGEN Inc., Buena Vista, CO, USA) following the manufacturer’s instructions. Briefly, the increased concentrations of the compounds were mixed with the reaction mixture, incubated according to the protocol and, after reaction termination, the samples were analysed by electrophoresis using 1% agarose gel containing […] of ethidium bromide in Tris-Acetate-EDTA (TAE) buffer. Visualisation of the bands was performed using an enhanced chemiluminescence system (Syngene G:BOX Chemi XT4, Cambridge, UK). For the quantitative determination of topoisomerase II inhibition, images were densitometrically scanned.
topoII + compound 4 (100 µM); lane 7: scDNA + topoII + compound 5 (100 µM); lane 8: scDNA + topoII
+ compound 6 (100µM); lane 9: scDNA + topoII + compound 7 (100 µM); lane 10: scDNA + topoII +
compound 8 (100µM); lane 11: scDNA + topoII + compound 9 (100µM); lane 12: scDNA + topoII +
Figure S4. […] Lane 1: scDNA; […]

T1 sequence (P11388 whole entry): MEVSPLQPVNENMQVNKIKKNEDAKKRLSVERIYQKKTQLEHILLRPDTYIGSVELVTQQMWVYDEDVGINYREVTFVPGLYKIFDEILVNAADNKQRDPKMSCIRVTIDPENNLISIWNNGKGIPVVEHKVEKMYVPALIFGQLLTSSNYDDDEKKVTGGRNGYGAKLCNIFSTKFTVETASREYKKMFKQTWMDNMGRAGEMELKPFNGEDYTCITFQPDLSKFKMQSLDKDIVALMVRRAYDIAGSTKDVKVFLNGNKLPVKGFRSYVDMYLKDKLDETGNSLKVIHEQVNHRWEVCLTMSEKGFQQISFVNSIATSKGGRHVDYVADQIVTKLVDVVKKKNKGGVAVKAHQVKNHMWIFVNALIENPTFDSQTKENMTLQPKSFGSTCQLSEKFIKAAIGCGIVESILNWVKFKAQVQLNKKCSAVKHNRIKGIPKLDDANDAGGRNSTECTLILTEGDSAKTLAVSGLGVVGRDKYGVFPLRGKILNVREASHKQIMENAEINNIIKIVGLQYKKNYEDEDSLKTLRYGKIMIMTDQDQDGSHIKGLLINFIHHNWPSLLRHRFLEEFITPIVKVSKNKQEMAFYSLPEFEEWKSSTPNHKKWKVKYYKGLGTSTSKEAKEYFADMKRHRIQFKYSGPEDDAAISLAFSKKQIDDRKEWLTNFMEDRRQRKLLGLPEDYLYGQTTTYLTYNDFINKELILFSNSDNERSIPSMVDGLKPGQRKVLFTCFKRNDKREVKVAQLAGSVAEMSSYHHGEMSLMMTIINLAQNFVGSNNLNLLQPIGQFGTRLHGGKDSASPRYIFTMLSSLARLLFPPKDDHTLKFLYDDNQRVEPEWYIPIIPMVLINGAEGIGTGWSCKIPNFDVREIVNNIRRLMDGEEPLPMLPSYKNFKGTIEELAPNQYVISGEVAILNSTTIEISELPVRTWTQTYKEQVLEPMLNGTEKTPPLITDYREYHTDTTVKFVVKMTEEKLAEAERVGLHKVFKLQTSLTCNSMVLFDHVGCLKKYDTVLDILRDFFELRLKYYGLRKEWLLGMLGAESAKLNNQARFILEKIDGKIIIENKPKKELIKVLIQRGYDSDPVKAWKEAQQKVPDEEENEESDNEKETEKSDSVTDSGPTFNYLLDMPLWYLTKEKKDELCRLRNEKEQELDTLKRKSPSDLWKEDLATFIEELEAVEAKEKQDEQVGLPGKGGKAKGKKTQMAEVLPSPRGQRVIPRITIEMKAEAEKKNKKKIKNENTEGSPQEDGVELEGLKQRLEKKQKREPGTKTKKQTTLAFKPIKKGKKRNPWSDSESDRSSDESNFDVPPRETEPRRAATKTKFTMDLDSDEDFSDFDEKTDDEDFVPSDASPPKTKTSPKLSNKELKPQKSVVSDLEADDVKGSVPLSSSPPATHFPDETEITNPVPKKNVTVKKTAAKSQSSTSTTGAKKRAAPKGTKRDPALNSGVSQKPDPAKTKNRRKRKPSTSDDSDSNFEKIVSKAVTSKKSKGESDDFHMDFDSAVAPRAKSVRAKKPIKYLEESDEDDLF

`COc1cc([C@@H]2c3cc4c(cc3[C@@H](O[C@@H]3O[C@@H]5CO[C@@H](C)O[C@H]5[C@H](O)[C@H]3O)[C@H]3COC(=O)[C@H]23)OCO4)cc(OC)c1O` [Etoposide, etoposide, reference compound] was tested, and the “stabilisation of the covalent DNA-enzyme cleavage complex” value was “able to stabilise the covalent DNA-enzyme cleavage complex”.
